Measurements: patent publication US8809377B2, “Deubiquitinase inhibitors and methods for use of the same” (The Regents of the University of Michigan, priority 2010, dated 2014)
Residues, ends and D or L forms follow the SMILES beside them. *: point of attachment. Cbz = O=C(OCc1ccccc1)*

Assays:
USP9X = test: Western / HA-UbVS labeling of USP9X in intact cells or lysates; type: cell-based; settings: Z138 treated cells
Murine norovirus (MNV) = test: Murine norovirus plaque assay; type: cell-based; settings: MNV-1 (MOI 5), RAW 264.7, 20 μM, 8 and 12 hours postinfection
Description: Viral titers were determined by plaque assay.
Cells were treated with IFN-β as a positive anti-viral control.

ubiquitinated proteins = test: Ubiquitin immunoblot of cell extracts; type: cell-based; settings: for accumulation of ubiquitinated proteins: Z138 cells; for ubiquitinated protein levels: CML cells
Description: (§1) Total cell lysates were prepared by boiling and sonicating cell pellets in 1× Laemmli reducing sample buffer. To prepare detergent soluble and insoluble fractions, cells were lysed in cold isotonic lysis buffer [10 mM Tris-HCl (pH 7.5), 0.5% Triton X-100, 150 mM NaCl along with Mini-Complete and PhosSTOP] for 15 min on ice and centrifuged 10 min at 20,000 RCF. The clarified supernatant was used as the detergent soluble cell fraction. The residual pellet was washed and extracted in Laemmli reducing sample buffer and briefly sonicated to derive the detergent insoluble fraction. Equal volumes of cellular lysate or equal protein amounts were electrophoresed on SDS-PAGE gels and transferred to nitrocellulose membranes (Whatmann, Dassel, Germany). Proteins were detected by immunoblotting.
Whole cell lysates were prepared by boiling and sonicating the cell pellets in 1× Laemmli reducing sample buffer. To prepare detergent soluble and insoluble fractions, cells were lysed in cold isotonic lysis buffer [10 mM Tris-HCl (pH 7.5), 0.5% Triton X-100, 150 mM NaCl along with Mini-Complete and PhosSTOP] for 15 min on ice and centrifuged 10 minutes at 20,000 RCF. The clarified supernatant was used as a source of the detergent soluble cell fraction. The detergent insoluble fraction was extracted by the sonication of residual pellet in equal volumes of boiling 1× Laemmli reducing sample buffer. Equal volumes of cellular lysate or equal protein amounts were electrophoresed on SDS-PAGE gels.

tumor cell = test: Tumor cell proliferation; type: cell-based
From the text: WP1051 and WP1052 represent two earlier chemical analogues of WP1130. […] This was unexpected as WP1051 and WP1052 are chemically identical but structurally distinct isomers. Since apoptosis/anti-proliferative properties of WP1130 are related to its ability to suppress cellular DUBs and induce accumulation of ubiquitinated proteins, WP1051 and 1052 were investigated whether they can affect protein ubiquitination and DUB activity.

Bcr-Abl = Bcr-Abl immunoblot of cell fractions; type: cell-based; settings: CML cells; WP1130 5 μM, bortezomib 50 nM
cellular DUB activity = test: DUB activity of lysates from treated cells (Ub-AMC, Ub chain disassembly); type: cell-based; settings: Z138 cells, 5 μM WP1130 or 50 nM bortezomib, by 4 hours
Description: Cells were lysed in ice cold DUB buffer containing 50 mM Tris-HCl, pH 7.5, 0.5% NP-40, 5 mM MgCl2, 150 mM NaCl and 1 mM phenylmethylsulfonylfluoride. Briefly, 5 μg of clarified lysate from untreated or treated cells was incubated with 500 nM Ub-AMC in a 100 μL reaction volume at 37° C. and the release of AMC fluorescence was recorded at ex/em 380/480 using a spectrofluorometer. USP9x was immunoprecipitated from 500 μg of cell lysate and incubated in DUB buffer containing NEM, WP1130 or DMSO in a 100 μL reaction volume for 30 min. The reaction was initiated by the addition of 500 nM Ub-AMC and the release of AMC-fluorescence was recorded.
In vitro disassembly of purified polyubiquitin chains (K-48/K-63 linked) was performed as previously described. Five μg of lysate from untreated or WP1130 treated cells were prepared in DUB buffer and incubated with K48- or K-63 linked chains (1 μg) for 10 min at 37° C. The extent of chain disassembly was assessed by ubiquitin immunoblotting.
Inhibition of cellular deubiquitinases could lead to an increase in high molecular weight ubiquitinated proteins in the absence of proteasome inhibition. […] To directly assess the impact of WP1130 on DUB activity in treated cells, cell lysates from control and treated cells were incubated with ubiquitin-AMC and fluorescence generated as a consequence of substrate cleavage was measured as an indicator of DUB activity.
The effect of WP1130 treatment on in vitro deubiquitination/disassembly of purified K48-linked or K63-linked polyubiquitin chains was evaluated. Lysates from WP1130 treated (2 hr) or untreated cells were incubated with 1 μg of unanchored polyubiquitin chains for 5, 10 and 15 min at 37° C.

20S human proteasome = target: T1, 20S human proteasome (Homo sapiens, UniProt P28074); test: Proteasome activity assay on purified 20S proteasome; type: biochemical; settings: 5 μM
T1 construct: purchased BostonBiochem
Description: (§2) Fluorogenic substrate Suc-LLVY-AMC was used to assay for the chymotryptic-like activity of the 20S proteasome. To assay for in vivo proteasome inhibition cells were treated with WP1130 (5 μM) or MG132 (5 μM) for 2 hours and lysed in ice-cold lysis buffer (50 mM HEPES, pH 7.5, 5 mM EDTA, 150 mM NaCl, 1% Triton X-100). Lysates were clarified by centrifugation at 20,000 RCF for 10 min and equal amounts of protein from each sample were incubated at 37° C. with 100 μM fluorogenic substrate. To assay for direct inhibition of the 20S proteasome in vitro, purified 20S human proteasome (200 ng) was incubated with WP1130 (5 μM), MG132 (5 μM) or Lactacystin (5 μM) for 30 min at 37° C. before addition of the substrates. Fluorescence intensity was measured using a spectrophotometer at excitation 360 nm & emission 460 nm. Assays were performed in triplicate, and statistical significance was determined with a paired Student's t test.

20S proteasome = target: T2, 20S proteasome (Homo sapiens, UniProt P28074); test: Proteasome activity assay in treated cells (Suc-LLVY-AMC); type: cell-based; settings: 5 μM, 2 hr
T2 construct: endogenous in cells; host or cells: K562 and other CML lines, Z138
Description: as §2

pStat5 = test: Western blot of pStat5; type: cell-based; settings: SET, HEL cell lines
Description: as §1
(§3) Cancer Res, 2010. 70(22): p. […] Blood, 2011. 117(11): p. […] Biochem Pharmacol, 2011. 82(4): p. […] Blood, 2007. 109(8): p. 3470-8.

K562 = test: MTT cell growth and survival; type: cell-based; settings: K562 cell line
From the text: as §3

DUB activity = test: Western / HA-UbVS labeling of DUB activity in intact cells; type: cell-based; settings: for DUBs labeling (HA-UbVS): Z138 treated cells, AG490 250 μM
Description: (§4) To assay for changes in activity of cellular deubiquitinase enzymes, leukemic cells were lysed in DUB buffer (50 mM Tris pH 7.4, 5 mM MgCl2, 150 mM NaCl) for 10 min at 4° C. The lysates were centrifuged at 20,000 RCF for 10 min and the supernatant was used for DUB labeling. Equal amounts of lysate were incubated with 500 ng of HA-UbVs for 1 hr at room temperature, followed by boiling in reducing sample buffer and resolving by SDS-PAGE. HA immunoblotting was used to detect DUB labeling.
as §4, with “Z138 and HEK293” for “leukemic”, “RFC” for “RCF”, “SDS-PAGE. After protein transfer to nitrocellulose membranes,” for “SDS-PAGE.”
as §3

BV-173 and BV-173R = test: Anti-proliferative effects in CML lines; settings: BV-173 (WT Bcr-Abl) and BV-173R (T315I)
Hsp70 = Hsp70 immunoblot; type: cell-based; settings: CML cells
[1] = target: ubiquitin iso-peptidase activity; settings: read-out: IC50, ubiquitin iso-peptidase activity in cells; cited from earlier work
WDT2 = test: MTT cell growth and survival; type: cell-based; settings: WDT2 cell line
From the text: as §3

T2 sequence (P28074 60-263): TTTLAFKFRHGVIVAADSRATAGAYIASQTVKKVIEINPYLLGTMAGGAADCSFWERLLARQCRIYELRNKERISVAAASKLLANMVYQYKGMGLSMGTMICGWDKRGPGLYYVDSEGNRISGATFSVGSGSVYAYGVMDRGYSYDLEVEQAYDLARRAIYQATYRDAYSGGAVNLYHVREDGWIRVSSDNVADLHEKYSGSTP

C[C@H](NC(=O)/C(C#N)=C/c1ccc([N+](=O)[O-])c(O)c1)c1ccccc1 [WP1051]
HA-UbVS labeling of USP9x (USP9X): could suppress the activity | viral titers by plaque assay (Murine norovirus (MNV)): reduced viral titers | accumulation of ubiquitinated proteins (ubiquitinated proteins): induce accumulation of ubiquitinated proteins in a dose-dependent fashion | suppression of tumor cell proliferation (tumor cell): effective in suppressing tumor cell proliferation

CC(C)C[C@H](NC(=O)[C@H](Cc1ccccc1)NC(=O)c1cnccn1)B(O)O [Bortezomib, reference compound]
Bcr-Abl trafficking from detergent soluble to insoluble cell fraction (Bcr-Abl): no effect | reduction of DUB activity (ubiquitin-AMC) (cellular DUB activity): no change | ubiquitinated protein levels (ubiquitinated proteins): elevated

CC(C)C[C@@H](C=O)NC(=O)[C@H](CC(C)C)NC(=O)[C@H](CC(C)C)NC(=O)OCc1ccccc1 [MG-132, reference compound] (Cbz-Leu-Leu-Leu-aldehyde)
purified 20S proteasome activity (in vitro) (20S human proteasome): substantially inhibited | 20S proteasome chymotryptic-like activity in intact cells (in vivo) (20S proteasome): substantially inhibited

CCC[C@H](NC(=O)C(C#N)C(SCC(O)CO)c1cccc(Br)n1)c1ccccc1 (stereo partly drawn) [Compound 20, 3-(6-Bromopyridin-2-yl)-2-cyano-3-((2,3-dihydroxypropyl)thio)-N—((S)-1-phenylbutyl)propanamide]
Western Targets: pStat5 (pStat5): pStat5: down-regulated; DUB | MTT Activity relative to WP1130 (K562): More sensitive | Western Targets: DUB activity (DUB activity; SET, HEL cell lines): no effect

C=CCNC1=C2C[C@@H](C)C[C@H](OC)[C@H](O)[C@@H](C)/C=C(\C)[C@H](OC(N)=O)[C@@H](OC)/C=C\C=C(/C)C(=O)NC(=CC1=O)C2=O [Compound 17-AAG, 17-Allylamino-17-demethoxygeldanamycin, reference compound]
anti-proliferative effects (BV-173 and BV-173R): anti-proliferative effects | Hsp70 protein levels (Hsp70): induction of Hsp70 | ubiquitinated protein levels (ubiquitinated proteins): no effect

O=C(C=Cc1ccccc1)C=Cc1ccccc1 [dibenzylideneacetone]
IC50 [1]: 20 to 40 µM

CCCCC[C@H](O)C/C=C1/C(=O)C=C[C@@H]1C/C=C\CCCC(=O)O [D12-prostaglandin J2]
IC50 [1]: ~30 µM

CCCC(NC(=O)/C(C#N)=C/c1cccc(Br)n1)c1ccc(O)cc1 (stereo not shown) [Compound 7, (E)-3-(6-Bromopyridin-2-yl)-2-cyano-N-(1-(4-hydroxyphenyl)butyl)acrylamide]
MTT Activity relative to WP1130 (WDT2): More sensitive

COc1cc(/C=C/C(=O)CC(=O)/C=C/c2ccc(O)c(OC)c2)ccc1O [curcumin]
IC50 [1]: 80 to 100 µM

C=C1C(=O)C2=CC1CCC(=O)C1(C)CCC(OC(C)=O)C(C)(C)C1CC2O (stereo not shown) [shikoccin]
IC50 [1]: ~15 µM

CCC(NC(=O)/C(C#N)=C/c1cccc(Br)n1)c1ccc(OCCOC)cc1 (stereo not shown) [Compound 17, (E)-3-(6-Bromopyridin-2-yl)-2-cyano-N-(1-(4-(2-methoxyethoxy)phenyl)propyl)-acrylamide]
MTT Activity relative to WP1130 (K562): Less sensitive

C[C@H](NC(=O)/C(C#N)=C/c1ccc(O)c([N+](=O)[O-])c1)c1ccccc1 [WP1052]
viral titers by plaque assay (Murine norovirus (MNV)): not | accumulation of ubiquitinated proteins (ubiquitinated proteins): failed to show any affect | suppression of tumor cell proliferation (tumor cell): failed to show any anti-tumor properties | DUBs labeling (HA-UbVS) (DUB activity): no DUB inhibition

N#C/C(=C/c1ccc(O)c(O)c1)C(=O)NCc1ccccc1 [AG490, reference compound]
accumulation of ubiquitinated proteins (ubiquitinated proteins): did not induce a change | DUBs labeling (HA-UbVS) (DUB activity): no change

CCCC(NC(=O)/C(C#N)=C/c1cccc(Br)n1)c1ccc(OCOC)cc1 (stereo not shown) [Compound 6, (E)-3-(6-Bromopyridin-2-yl)-2-cyano-N-(1-(4-(methoxymethoxy)phenyl)butyl)acrylamide]
MTT Activity relative to WP1130 (WDT2): More sensitive
